Among the data in patent publication US20260062422A1 (Halda Therapeutics OpCo, Inc., priority 2022, published 2026) are GI50 values, retold here.

The subject of experiment [1] is T-Rex 293 cell line SC3 cells having increased expression of androgen receptor protein due to exposure to doxycycline. In words: Cellular growth inhibition, T-Rex 293 SC3 cells with doxycycline (androgen receptor induced), CellTiter-Glo. It is filed as cell-based. As to conditions: T-Rex 293 SC3 cells with 10 ng/mL doxycycline (increased androgen receptor expression). A digest of the protocol: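 With DMSO (0.5%) vehicle as negative control, compounds treated SC3 cells for 72 h in medium containing charcoal-dextran FBS ± doxycycline. This T-Rex 293 clone expresses transfected wild-type AR on induction. Readout: CellTiter-Glo 2.0; GI50 by nonlinear regression.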
In general terms: ATP-based viability assays read luminescence as a measure of living cells.

In the next experiment the test system is T47D cells. In words: Cellular growth inhibition assay for T47D cells, CellTiter-Glo. As to conditions: 72 hours treatment, CellTiter-Glo 2.0 cell viability. The experiment is classed as cell-based, human. Summed up:
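Cells are plated at 3000/well and allowed 24 h before treatment. Test compound in medium containing 0.5% DMSO is then added, with DMSO-only wells as negative control, and plates are incubated 72 h at 37 °C. ATP luminescence (CellTiter-Glo 2.0) is then fitted to four parameters to derive GI50.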

In the case of `Cc1sc2c(c1C)C(c1ccc(Cl)cc1)=N[C@@H](CC(=O)NCCN(C)c1ncc(C(=O)N[C@H]3C(C)(C)[C@H](Oc4ccc(C#N)c(Cl)c4)C3(C)C)cn1)c1nnc(C)n1-2` [Compound I-1, N-[3-(3-chloro-4-cyano-phenoxy)-2,2,4,4-tetramethyl-cyclobutyl]-2-[2-[[2-[(9S)-7-(4-chlorophenyl)-4,5,13-trimethyl-3-thia-1,8,11,12-tetrazatricyclo[8.3.0.02,6]trideca-2(6),4,7,10,12-pentaen-9-yl]acetyl]amino]ethyl-methyl-amino]pyrimidine-5-carboxamide], the GI50 in experiment [1] (72 h) was 1500 to 3000 nM; with T47D cells (Homo sapiens, T47D, 72 h), < 500 nM.
Consider `Cc1sc2c(c1C)C(c1ccc(Cl)cc1)=N[C@@H](CC(=O)NCCOCCOCCOCCOCCN(C)c1ncc(C(=O)N[C@H]3C(C)(C)[C@H](Oc4ccc(C#N)c(Cl)c4)C3(C)C)cn1)c1nnc(C)n1-2` [Compound I-3, N-((1r,3r)-3-(3-chloro-4-cyanophenoxy)-2,2,4,4-tetramethylcyclobutyl)-2-((1-((S)-4-(4-chlorophenyl)-2,3,9-trimethyl-6H-thieno[3,2-f][1,2,4]triazolo[4,3-a][1,4]diazepin-6-yl)-2-oxo-6,9,12,15-tetraoxa-3-azaheptadecan-17-yl)(methyl)amino)pyrimidine-5-carboxamide], for which, in experiment [1] (72 h), the GI50 is < 500 nM.
As to `Cc1sc2c(c1C)C(c1ccc(Cl)cc1)=N[C@@H](CC(=O)NCCOCCOCCOCCOCCOCCOCCN(C)c1ncc(C(=O)N[C@H]3C(C)(C)[C@H](Oc4ccc(C#N)c(Cl)c4)C3(C)C)cn1)c1nnc(C)n1-2` [Compound I-4], the GI50 in experiment [1] (72 h) was < 500 nM.
Turning to `Cc1sc2c(c1C)C(c1ccc(Cl)cc1)=N[C@@H](CC(=O)NCCCN1CCN(CCCN(C)c3ncc(C(=O)N[C@H]4C(C)(C)[C@H](Oc5ccc(C#N)c(Cl)c5)C4(C)C)cn3)CC1)c1nnc(C)n1-2` [Compound I-5, N-((1r,3r)-3-(3-chloro-4-cyanophenoxy)-2,2,4,4-tetramethylcyclobutyl)-2-((3-(4-(3-(2-((S)-4-(4-chlorophenyl)-2,3,9-trimethyl-6H-thieno[3,2-f][1,2,4]triazolo[4,3-a][1,4]diazepin-6-yl)acetamido)propyl)piperazin-1-yl)propyl)(methyl)amino)pyrimidine-5-carboxamide], the GI50 in experiment [1] (72 h) was < 500 nM.
On to `Cc1sc2c(c1C)C(c1ccc(Cl)cc1)=N[C@@H](CC(=O)NCCOC1CCN(c3ncc(C(=O)N[C@H]4C(C)(C)[C@H](Oc5ccc(C#N)c(Cl)c5)C4(C)C)cn3)CC1)c1nnc(C)n1-2` [Compound I-6], for which the GI50 in experiment [1] (72 h) was < 500 nM.
On to `Cc1sc2c(c1C)C(c1ccc(Cl)cc1)=N[C@H](CC(=O)NCCOCCOCCOCCOCCOCCOCCOC1CCN(c3ncc(C(=O)N[C@H]4C(C)(C)[C@H](Oc5ccc(C#N)c(Cl)c5)C4(C)C)cn3)CC1)c1nnc(C)n1-2` [Compound I-9], for which the GI50 in experiment [1] (72 h) is < 500 nM.
As to `Cc1sc2c(c1C)C(c1ccc(Cl)cc1)=N[C@@H](CC(=O)NCCCN1CCN(CCCOC3CCN(c4ncc(C(=O)N[C@H]5C(C)(C)[C@H](Oc6ccc(C#N)c(Cl)c6)C5(C)C)cn4)CC3)CC1)c1nnc(C)n1-2` [Compound I-10], the concentration for 50% growth inhibition (GI50) in experiment [1] (72 h) is < 500 nM.
The same measure, in the same setting: for `Cc1sc2c(c1C)C(c1ccc(Cl)cc1)=N[C@@H](CC(=O)NCCOCCOCCOCCOC1CCN(c3ncc(C(=O)N[C@H]4C(C)(C)[C@H](Oc5ccc(C#N)c(Cl)c5)C4(C)C)cn3)CC1)c1nnc(C)n1-2` [Compound I-11] the value was < 500 nM.
Regarding `Cc1sc2c(c1C)C(c1ccc(Cl)cc1)=N[C@H](CC(=O)NCCOCCOCCOCCOC1CCN(c3ncc(C(=O)N[C@H]4C(C)(C)[C@H](Oc5ccc(C#N)c(Cl)c5)C4(C)C)cn3)CC1)c1nnc(C)n1-2` [Compound I-13], in experiment [1] (72 h), the GI50 is > 3000 nM.
Same read-out and setting: the figure for `Cc1sc2c(c1C)C(c1ccc(Cl)cc1)=N[C@@H](CC(=O)NCCOCCOCCOCC1CCN(c3ncc(C(=O)N[C@H]4C(C)(C)[C@H](Oc5ccc(C#N)c(Cl)c5)C4(C)C)cn3)CC1)c1nnc(C)n1-2` [Compound I-17] is < 500 nM; for `Cc1sc2c(c1C)C(c1ccc(Cl)cc1)=N[C@@H](CC(=O)NCCOCCOCCOCC1CN(c3ncc(C(=O)N[C@H]4C(C)(C)[C@H](Oc5ccc(C#N)c(Cl)c5)C4(C)C)cn3)C1)c1nnc(C)n1-2` [Compound I-18] it is 500 to 1500 nM.
`Cc1sc2c(c1C)C(c1ccc(Cl)cc1)=N[C@H](CC(=O)NCCOCCOCCOCCOCCN(C)c1ncc(C(=O)N[C@H]3C(C)(C)[C@H](Oc4ccc(C#N)c(Cl)c4)C3(C)C)cn1)c1nnc(C)n1-2` [Compound I-19]: the GI50 in experiment [1] (72 h) is > 3000 nM.
`Cc1sc2c(c1C)C(c1ccc(Cl)cc1)=N[C@@H](CC(=O)NCCCCCOC1CCN(c3ncc(C(=O)N[C@H]4C(C)(C)[C@H](Oc5ccc(C#N)c(Cl)c5)C4(C)C)cn3)CC1)c1nnc(C)n1-2` [Compound I-22, N-((1r,3r)-3-(3-chloro-4-cyanophenoxy)-2,2,4,4-tetramethylcyclobutyl)-2-(4-((5-(2-((S)-4-(4-chlorophenyl)-2,3,9-trimethyl-6H-thieno[3,2-A][1,2,4]triazolo[4,3-a][1,4]diazepin-6-yl)acetamido)pentyl)oxy)piperidin-1-yl)pyrimidine-5-carboxamide]: the GI50 in experiment [1] (72 hours) is < 500 nM.
As to `Cc1sc2c(c1C)C(c1ccc(Cl)cc1)=N[C@@H](CC(=O)NCCCCCCCOC1CCN(c3ncc(C(=O)N[C@H]4C(C)(C)[C@H](Oc5ccc(C#N)c(Cl)c5)C4(C)C)cn3)CC1)c1nnc(C)n1-2` [Compound I-24], the GI50 in experiment [1] (72 h) is < 500 nM.
For `Cc1sc2c(c1C)C(c1ccc(Cl)cc1)=N[C@@H](CC(=O)NCCCCOCCOC1CCN(c3ncc(C(=O)N[C@H]4C(C)(C)[C@H](Oc5ccc(C#N)c(Cl)c5)C4(C)C)cn3)CC1)c1nnc(C)n1-2` [Compound I-28], in experiment [1] (72 h), the GI50 was < 500 nM.
Turning to `Cc1sc2c(c1C)C(c1ccc(OCCOCCOC3CCN(c4ncc(C(=O)N[C@H]5C(C)(C)[C@H](Oc6ccc(C#N)c(Cl)c6)C5(C)C)cn4)CC3)cc1)=N[C@@H](CC(=O)O)c1nnc(C)n1-2` [Compound I-39], the GI50 in experiment [1] (72 h) lay in the range of 500 to 1500 nM.
The same measure, in the same setting: for `Cc1sc2c(c1C)C(c1ccc(OCCOCCOCCOC3CCN(c4ncc(C(=O)N[C@H]5C(C)(C)[C@H](Oc6ccc(C#N)c(Cl)c6)C5(C)C)cn4)CC3)cc1)=N[C@@H](CC(=O)O)c1nnc(C)n1-2` [Compound I-40] the value was > 3000 nM; for `Cc1sc2c(c1C)C(c1cccc(OCCOCCOC3CCN(c4ncc(C(=O)N[C@H]5C(C)(C)[C@H](Oc6ccc(C#N)c(Cl)c6)C5(C)C)cn4)CC3)c1)=N[C@@H](CC(=O)O)c1nnc(C)n1-2` [Compound I-42], 500 to 1500 nM; for `Cc1sc2c(c1C)C(c1cccc(OCCOCCOCCOC3CCN(c4ncc(C(=O)N[C@H]5C(C)(C)[C@H](Oc6ccc(C#N)c(Cl)c6)C5(C)C)cn4)CC3)c1)=N[C@@H](CC(=O)O)c1nnc(C)n1-2` [Compound I-43], > 3000 nM.
On the same count and under the same terms, the figure for `CCNC(=O)C[C@@H]1N=C(c2ccc(OCCOCCOCCOC3CCN(c4ncc(C(=O)N[C@H]5C(C)(C)[C@H](Oc6ccc(C#N)c(Cl)c6)C5(C)C)cn4)CC3)cc2)c2c(sc(C)c2C)-n2c(C)nnc21` [Compound I-45, N-((1r,3r)-3-(3-chloro-4-cyanophenoxy)-2,2,4,4-tetramethylcyclobutyl)-2-(4-(2-(2-(2-(4-((S)-6-(2-(ethylamino)-2-oxoethyl)-2,3,9-trimethyl-6H-thieno[3,2-f][1,2,4]triazolo[4,3-a][1,4]diazepin-4-yl)phenoxy)ethoxy)ethoxy)ethoxy)piperidin-1-yl)pyrimidine-5-carboxamide] is < 500 nM; for `CCNC(=O)C[C@@H]1N=C(c2cccc(OCCOCCOC3CCN(c4ncc(C(=O)N[C@H]5C(C)(C)[C@H](Oc6ccc(C#N)c(Cl)c6)C5(C)C)cn4)CC3)c2)c2c(sc(C)c2C)-n2c(C)nnc21` [Compound I-47, N-((1r,3r)-3-(3-chloro-4-cyanophenoxy)-2,2,4,4-tetramethylcyclobutyl)-2-(4-(2-(2-(3-((S)-6-(2-(ethylamino)-2-oxoethyl)-2,3,9-trimethyl-6H-thieno[3,2-f][1,2,4]triazolo[4,3-a][1,4]diazepin-4-yl)phenoxy)ethoxy)ethoxy)piperidin-1-yl)pyrimidine-5-carboxamide] it is < 500 nM; for `CCNC(=O)C[C@@H]1N=C(c2cccc(OCCOCCOCCOC3CCN(c4ncc(C(=O)N[C@H]5C(C)(C)[C@H](Oc6ccc(C#N)c(Cl)c6)C5(C)C)cn4)CC3)c2)c2c(sc(C)c2C)-n2c(C)nnc21` [Compound I-48, N-((1r,3r)-3-(3-chloro-4-cyanophenoxy)-2,2,4,4-tetramethylcyclobutyl)-2-(4-(2-(2-(2-(3-((S)-6-(2-(ethylamino)-2-oxoethyl)-2,3,9-trimethyl-6H-thieno[3,2-f][1,2,4]triazolo[4,3-a][1,4]diazepin-4-yl)phenoxy)ethoxy)ethoxy)ethoxy)piperidin-1-yl)pyrimidine-5-carboxamide] it is < 500 nM.
With `CCNC(=O)C[C@@H]1N=C(c2ccc(N3CCC(N(C)C4CCN(c5ncc(C(=O)N[C@H]6C(C)(C)[C@H](Oc7ccc(C#N)c(Cl)c7)C6(C)C)cn5)CC4)CC3)cc2)c2c(sc(C)c2C)-n2c(C)nnc21` [Compound I-113], the GI50 in experiment [1] (72 h) is < 500 nM.
In the case of `CCNC(=O)C[C@@H]1N=C(c2ccc(N3CCC(OC4CCN(c5ncc(C(=O)N[C@H]6C(C)(C)[C@H](Oc7ccc(C#N)c(Cl)c7)C6(C)C)cn5)CC4)CC3)cc2)c2c(sc(C)c2C)-n2c(C)nnc21` [Compound I-114], the GI50 in experiment [1] (72 h) was < 500 nM.
Consider `Cc1sc2c(c1C)C(c1ccc(CC3CC4(CCN(c5ncc(C(=O)N[C@H]6C(C)(C)[C@H](Oc7ccc(C#N)c(Cl)c7)C6(C)C)cn5)CC4)C3)cc1)=N[C@@H](C)c1nnc(C)n1-2` [Compound I-303], for which the GI50 in the experiment with T47D cells is < 500 nM.

Broadly, the GI50 is the concentration at which growth is held to half of that of the control. Read a high GI50 as less potent growth inhibition.
